Data on one compound can be found in PMC9493392, “N-glycosylation modulates enzymatic activity of Trypanosoma congolense trans-sialidase” (The Journal of Biological Chemistry, 2022).

For one assay, the system named is T1, TconTS1.
T1 construct: catalytic plus lectin-like domain; C3 protease site, C-terminal SNAP and Strep tag kept; secreted by CHO Lec1 cells; high-mannose N-glycans; mock-incubated 16 h at 37 °C
Put plainly: HPAEC-PAD of […]'-sialyllactose formed, […] min, Michaelis-Menten fit. Format: biochemical, Trypanosoma congolense. To be noted: two biological replicates; sialic acid acceptor; donor fetuin (600 μM bound Neu5Ac); 10 mM potassium phosphate pH 7.4, 37 °C; N-glycosylated enzyme.

In another assay the test system is T2, H-TconTS1.
T2 construct: same polypeptide as P1 (SNAP and Strep tag kept, CHO Lec1 cells), but N-glycans partly removed with EndoHf (16 h), leaving single GlcNAc residues; hypoglycosylated
Described as above. The settings on record: two biological replicates, purified differently after EndoHf; sialic acid acceptor; donor fetuin (600 μM bound Neu5Ac); 10 mM potassium phosphate pH 7.4, 37 °C; EndoHf-treated hypoglycosylated enzyme. Format: biochemical, Trypanosoma congolense.

On to `OC[C@H]1O[C@@H](O[C@H]2[C@H](O)[C@@H](O)C(O)O[C@@H]2CO)[C@H](O)[C@@H](O)[C@H]1O` (some centres unmarked) [lactose], for which the “KM (apparent)” value in the assay with TconTS1 was 1.7 and 2.0 mM; in the assay on H-TconTS1, 9.0 and 3.2 mM.
